{"source": "BindingDB's records for patent US20250059194", "about": "(Michigan State University, 2025)", "molecular_target": "T1, Serine/threonine-protein kinase ULK2 (Homo sapiens, UniProt Q8IYT8)", "T1 sequence (Q8IYT8 whole entry)": "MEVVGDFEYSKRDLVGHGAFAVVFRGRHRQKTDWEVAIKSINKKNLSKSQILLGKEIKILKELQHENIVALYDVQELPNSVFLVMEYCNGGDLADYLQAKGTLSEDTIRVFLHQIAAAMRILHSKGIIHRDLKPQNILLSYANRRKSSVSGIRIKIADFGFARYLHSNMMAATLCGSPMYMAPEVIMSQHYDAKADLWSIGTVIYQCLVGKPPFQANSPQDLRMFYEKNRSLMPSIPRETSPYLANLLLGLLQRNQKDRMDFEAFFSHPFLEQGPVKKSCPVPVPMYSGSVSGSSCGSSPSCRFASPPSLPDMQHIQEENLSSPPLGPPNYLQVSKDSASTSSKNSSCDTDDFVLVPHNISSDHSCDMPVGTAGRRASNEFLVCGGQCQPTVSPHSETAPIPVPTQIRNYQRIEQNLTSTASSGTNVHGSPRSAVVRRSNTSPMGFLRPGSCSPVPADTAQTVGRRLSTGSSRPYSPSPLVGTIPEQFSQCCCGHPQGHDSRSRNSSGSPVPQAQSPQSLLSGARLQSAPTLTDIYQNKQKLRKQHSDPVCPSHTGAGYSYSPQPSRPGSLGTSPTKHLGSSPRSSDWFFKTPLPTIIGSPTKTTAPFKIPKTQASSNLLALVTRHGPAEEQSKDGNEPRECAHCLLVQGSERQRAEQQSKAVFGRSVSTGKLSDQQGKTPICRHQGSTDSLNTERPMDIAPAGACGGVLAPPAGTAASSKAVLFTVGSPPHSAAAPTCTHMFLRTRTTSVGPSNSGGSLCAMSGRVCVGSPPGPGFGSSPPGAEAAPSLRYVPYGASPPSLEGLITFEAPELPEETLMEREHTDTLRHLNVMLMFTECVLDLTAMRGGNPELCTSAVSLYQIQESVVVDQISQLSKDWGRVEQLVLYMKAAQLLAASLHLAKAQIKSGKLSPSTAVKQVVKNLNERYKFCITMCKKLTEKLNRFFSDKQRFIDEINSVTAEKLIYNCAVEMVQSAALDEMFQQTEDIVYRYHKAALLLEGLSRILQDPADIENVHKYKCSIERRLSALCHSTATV", "test": "Not found", "excerpt": "Not found", "note": "pIC50: −log10 of the molar value."}
{"smiles": "CCC(CC)NC(=O)c1cc(-c2cnn3cc(N4CCNCC4)cnc23)cs1", "note": "[US20250059194, Example Table 1.9]", "values": [{"measurement": "pIC50", "value": 6.49}]}
